How the values were obtained:
[1] = system: ClpB-YFP in dnaK103 E. coli; experiment: Confocal microscopy of ClpB-YFP localization; assay type: cell-based, Escherichia coli; conditions: dnaK103, 100-μM DBeQ, 45 °C 30 min
Experimental: ClpB-YFP and Luciferase-YFP were expressed at low levels in E. coli strains ΔclpB, dnaK103, and dnaK756 as described before ([44]). The expression of ClpB-YFP and YFP-Luciferase was initiated by addition of 200-μM IPTG or 0.02% (w/v) arabinose, respectively. The bacterial cells were cultured at 30 °C with 100-μM DBeQ or DMSO only. Protein translation was stopped by addition of erythromycin (30 μg/ml), and each culture was divided into two samples. One sample remained at 30 °C (control), whereas the other sample was transferred to 45 °C for 30 min (heat-shock conditions).
A thin layer of 1% agarose (TopVision Low Melting Point Agarose, Thermo Scientific) was prepared on a clean microscope glass slide. A small drop of 1% agarose was placed near the frosted end of the glass slide while bringing a second glass slide at a 30 to 45° angle from above, allowing the agarose drop to spread along the contact edge. […] An E. coli culture sample (1 μl) was immediately placed on the agarose-covered glass slide, covered with a cover slip, and used for fluorescence imaging.
Fluorescence imaging was performed using a Carl Zeiss LSM 880 Airyscan confocal microscope equipped with a Plan-Apochromat 63x/1.40 Oil DIC M27 objective coupled with a YFP Filter (excitation at 514 nm, emission at 561 nm, laser strength 0.98%). […]

[2] = molecular target: glucose-6-phosphate dehydrogenase (G6PDH) (Leuconostoc mesenteroides, UniProt P11411); experiment: Native G6PDH activity; assay type: biochemical; conditions: increasing DBeQ concentration
Experimental: G6PDH was chemically denatured by mixing 5 μl of the G6PDH stock solution (441 μM) with 5 μl of buffer A (10 M urea, 16% glycerol, 40-mM DTT) preheated at 47 °C. The samples of G6PDH in buffer A were incubated for 5 min at 47 °C. Subsequently, 5 μl of denatured G6PDH was mixed with 95 μl of buffer B (50-mM Tris-HCl, pH 7.4, 20-mM Mg(OAc)2, 30-mM KCl, 1-mM EDTA, 1-mM β-mercaptoethanol) preheated at 47 °C to initiate protein refolding, which, under these conditions, is inefficient and leads to misfolding and aggregation of G6PDH ([69]). G6PDH aggregate production was arrested after 1 min (for refolding by KJE) or 15 min (for refolding by KJE with ClpB) by transferring into ice for 2 min. […] The plate was inserted into Synergy H1 plate reader (BioTek, Winooski, VT) with the chamber temperature at 30 °C, and the sample absorbance at 340 nm was measured after 10 min. The amount of NADPH produced was calculated based on the NADPH molar extinction coefficient, Ɛ340 = 6220 [M^−1 ⋅ cm^−1]. […]
conditions. The ATPase activity of wt ClpB was determined at 37 and 45 °C as the function of DBeQ concentration. […]
Supplementary Figure 7. […] (A) Firefly luciferase activity was determined in the absence (DMSO) or in the presence 100 µM ClpB inhibitor candidates. […] (B) G6PDH activity was determined in the presence of an increasing concentration of DBeQ and normalized to the DMSO control. […]

glucose-6-phosphate dehydrogenase (G6PDH), sequence (P11411 whole entry): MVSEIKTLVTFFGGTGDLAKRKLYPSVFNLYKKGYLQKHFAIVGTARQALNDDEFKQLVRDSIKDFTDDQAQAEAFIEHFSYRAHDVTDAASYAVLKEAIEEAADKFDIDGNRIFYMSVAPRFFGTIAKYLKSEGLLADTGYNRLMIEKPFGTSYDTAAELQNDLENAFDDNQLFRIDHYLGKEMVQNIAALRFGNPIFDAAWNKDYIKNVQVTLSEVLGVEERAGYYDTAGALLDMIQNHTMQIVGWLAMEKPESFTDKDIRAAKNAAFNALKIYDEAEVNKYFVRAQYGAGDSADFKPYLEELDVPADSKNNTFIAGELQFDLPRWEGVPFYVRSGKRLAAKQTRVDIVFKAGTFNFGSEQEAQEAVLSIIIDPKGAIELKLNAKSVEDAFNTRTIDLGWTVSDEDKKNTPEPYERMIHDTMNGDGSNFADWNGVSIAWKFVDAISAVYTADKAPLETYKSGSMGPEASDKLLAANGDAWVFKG

## c1ccc(CNc2nc(NCc3ccccc3)c3ccccc3n2)cc1 [DBeQ, N^2,N^4-dibenzylquinazoline-2,4-diamine]
[1]
  ClpB-YFP localization with aggregates: ClpB colocalizes with the aggregates even in dnaK103
[2]
  effect on native G6PDH activity: not affected

Reference: paper PMC7948422, “Repurposing p97 inhibitors for chemical modulation of the bacterial ClpB–DnaK bichaperone system” (The Journal of Biological Chemistry, 2020)
